In assay [1] the test system is SK-MEL-2. Put plainly: Cytotoxicity against human SK-MEL-2 cells expressing NRAS mutant assessed as cell growth inhibition incubated for 48 hrs by MTT assay. Type of assay: functional, cell-based. The following applies: SK-MEL-2, 48 h. (Tetrazolium assays rely on reduction of a dye to a coloured formazan, in cell work by metabolically active cells.)
Assay [2] is described as follows: Binding affinity to 5'-FAM-labeled to NRAS RNA G-quadruplex 5'-r(UGUGGGAGGGGCGGGUCUGGG)-3' (unknown origin) assessed as dissociation constant by fluorescence quenching assay.
Assay [3] has as its system SK-MEL-2. Put plainly: Cytotoxicity against human SK-MEL-2 cells assessed as cell growth inhibition incubated for 24 hrs by MTT assay. Type of assay: functional, cell-based. The following applies: SK-MEL-2, 24 h.
The subject of assay [4] is SK-MEL-2. In words: Upregulation of NRAS mRNA level in human SK-MEL-2 cells at 1/2 times IC50 incubated for 24 hrs by RT-qPCR analysis. Type of assay: functional, cell-based. On the technique in general: Quantitative PCR measures a nucleic acid by following its amplification.
Assay [5] relates to SK-MEL-2. In words: Effect on NRAS protein translation in human SK-MEL-2 cells at 1/2 times IC50 incubated for 24 hrs by Western blot analysis. Type of assay: functional, cell-based.
The test system of assay [6] is SK-MEL-2. Put plainly: Synergistic cytotoxicity against human SK-MEL-2 cells expressing NRAS mutant assessed as combination index measured for 48 hrs in presence of MEK-162 by MTT assay. Format: functional.
Assay [7] deals with SK-MEL-2. Put plainly: Synergistic cytotoxicity against human SK-MEL-2 cells expressing NRAS mutant assessed as combination index measured for 48 hrs in presence of LY3214996 by MTT assay. Type of assay: functional.
Assay [8] has as its system SK-MEL-2. Put plainly: Antiproliferative activity against human SK-MEL-2 cells assessed as inhibition of colony formation at 1.5 uM measured after 10 days by crystal violet staining based assay. Type of assay: functional, cell-based. Particulars: time 10.0 day.
The test system of assay [9] is SK-MEL-2. Put plainly: Synergistic cytotoxicity against human SK-MEL-2 cells expressing NRAS mutant assessed as combination index measured for 48 hrs in presence of Rapamycin by MTT assay. Type of assay: functional.
The subject of assay [10] is SK-MEL-2. Put plainly: Synergistic cytotoxicity against human SK-MEL-2 cells expressing NRAS mutant assessed as combination index measured for 48 hrs in presence of MK2206 by MTT assay. Format: functional.

Structures are written as SMILES. The source made the active and inactive calls. The calls are words filed in the database; no cut-off is given here. Some results are limits rather than exact numbers.

In the case of `CCCCCCCCN=c1ccn(CCCCCCn2ccc(=NCCCCCCCC)cc2)cc1`, the IC50 (usually the concentration that gives 50% inhibition) in the assay on SK-MEL-2 [1] is 1770 nM. Moreover, the Kd – broadly, the concentration at which binding is half-saturated – in assay [2] was 320 nM.

Regarding `CCCCCNc1cc[n+](CCCC[n+]2ccc(NCCCCC)cc2)cc1`, the half-inhibitory concentration (IC50) with SK-MEL-2 [1] is over 25000 nM. Besides, the Kd in [2] came to 1660 nM.

As to `CCCCCCNc1cc[n+](CCCCCC[n+]2ccc(NCCCCCC)cc2)cc1`, the IC50 in the assay on SK-MEL-2 [1] was 8610 nM. In addition, the Kd in assay [2] came to 740 nM.

`CCCCCNc1cc[n+](CCCCCC[n+]2ccc(NCCCCC)cc2)cc1`: the IC50 in the assay on SK-MEL-2 [1] is over 25000 nM. The Kd in assay [2] came to 1290 nM.

On to `CCCCCCCCNc1cc[n+](CCCC[n+]2ccc(NCCCCCCCC)cc2)cc1`, for which the IC50 with SK-MEL-2 [1] amounted to 5610 nM. The Kd in assay [2] was found to be 1340 nM.

`CCCNc1cc[n+](CCCC[n+]2ccc(NCCC)cc2)cc1`: the equilibrium dissociation constant (Kd) in assay [2] worked out at 210 nM.

`CCCNc1cc[n+](CCCCCC[n+]2ccc(NCCC)cc2)cc1`: the equilibrium dissociation constant (Kd) in assay [2] was 2990 nM.

For `CCCCCCNc1cc[n+](CCCC[n+]2ccc(NCCCCCC)cc2)cc1`, the IC50 in the assay with SK-MEL-2 [1] was 17300 nM. Further, in assay [2], the Kd amounted to 760 nM.

For `CCCNc1cc[n+](CCCCCCCCCC[n+]2ccc(NCCC)cc2)cc1`, the concentration for half-maximal inhibition (IC50) in the assay on SK-MEL-2 [1] turned out to be 8360 nM. In [2], the equilibrium dissociation constant (Kd) amounted to 1720 nM.

Regarding `CCCCCNc1cc[n+](CCCCCCCCCC[n+]2ccc(NCCCCC)cc2)cc1`, the half-maximal inhibitory concentration (IC50) in the assay on SK-MEL-2 [1] came to 3000 nM. The dissociation constant Kd in assay [2] came to 1850 nM.

In the case of `CCCCCCNc1cc[n+](CCCCCCCCCC[n+]2ccc(NCCCCCC)cc2)cc1`, in the assay with SK-MEL-2 [1], the IC50 is 910 nM. Also, the Kd in [2] was 290 nM.

`CN(C)c1ccc(C(=C2C=CC(=[N+](C)C)C=C2)c2ccc(N(C)C)cc2)cc1` [GENTIAN VIOLET]: the results for the concentration for half-maximal inhibition (IC50) in the assay on SK-MEL-2 [3] and in the assay with SK-MEL-2 [1] were 2890 nM and 1360 nM, respectively. Further, the result with SK-MEL-2 [4] was Active. Moreover, the result with SK-MEL-2 [5] was inactive.

With `NC1(c2ccc(-c3nc4ccn5c(=O)[nH]nc5c4cc3-c3ccccc3)cc2)CCC1` [MK-2206], the CI in the assay on SK-MEL-2 [6] and in the assay with SK-MEL-2 [7] was 0.5 each time.

`Nc1ccc2cc3ccc(N)cc3nc2c1` [PROFLAVINE]: the IC50 in the assay on SK-MEL-2 [3] stood at 5310 nM; in the assay on SK-MEL-2 [1] it was 1600 nM. Further, the result in the assay with SK-MEL-2 [4] was Active. The result with SK-MEL-2 [5] was inactive.

As for `CO[C@H]1C[C@@H]2CC[C@@H](C)[C@@](O)(O2)C(=O)C(=O)N2CCCC[C@H]2C(=O)O[C@H]([C@H](C)C[C@@H]2CC[C@@H](O)[C@H](OC)C2)CC(=O)[C@H](C)/C=C(\C)[C@@H](O)[C@@H](OC)C(=O)[C@H](C)C[C@H](C)/C=C/C=C/C=C/1C` [SIROLIMUS], the inhibition entry in the assay on SK-MEL-2 [8] is “Active”. Further, the CI in the assay with SK-MEL-2 [6] and in the assay with SK-MEL-2 [7] was 0.5 in each case.

Turning to `Cn1nccc1Nc1nccc(-c2cc3c(s2)C(C)(C)N(CCN2CCOCC2)C3=O)n1` [TEMUTERKIB], the inhibition result in the assay with SK-MEL-2 [8] was “Active”. Moreover, the CI in the assay on SK-MEL-2 [9] and in the assay with SK-MEL-2 [10] was 0.5 throughout.

The values above are taken from ChEMBL document CHEMBL5380835, “Discovery of Clinically Used Octenidine as NRAS Repressor That Effectively Inhibits NRAS-Mutant Melanoma” (J Med Chem, 2023).
